Experimental data as given in US9938562B2, “Naphthalene derived chromogenic enzyme substrates” (Glycosynth Limited, priority 2013, dated 2018).

What was measured:
[1] = tested on: Escherichia coli NCTC 10418; assay: Agar plate multi-point inoculation, colour; format: cell-based; settings: Columbia agar, FAC 500 mg/L, substrate 300 mg/L, 37° C. 18 h in air
[2] = tested on: Klebsiella pneumoniae NCTC 9528; assay: Agar plate multi-point inoculation, colour; format: cell-based; settings: Columbia agar, FAC 500 mg/L, substrate 300 mg/L, 37° C. 18 h in air
[3] = tested on: Providencia rettgeri NCTC 7475; assay: Agar plate multi-point inoculation, colour; format: cell-based; settings: Columbia agar, FAC 500 mg/L, substrate 300 mg/L, 37° C. 18 h in air
[4] = tested on: Enterobacter cloacae NCTC 11936; assay: Agar plate multi-point inoculation, colour; format: cell-based; settings: Columbia agar, FAC 500 mg/L, substrate 300 mg/L, 37° C. 18 h in air
[5] = tested on: Serratia marcescens NCTC 10211; assay: Agar plate multi-point inoculation, colour; format: cell-based; settings: Columbia agar, FAC 500 mg/L, substrate 300 mg/L, 37° C. 18 h in air
[6] = tested on: Salmonella typhimurium NCTC 74; assay: Agar plate multi-point inoculation, colour; format: cell-based; settings: Columbia agar, FAC 500 mg/L, substrate 300 mg/L, 37° C. 18 h in air
[7] = tested on: Pseudomonas aeruginosa NCTC 10662; assay: Agar plate multi-point inoculation, colour; format: cell-based; settings: Columbia agar, FAC 500 mg/L, substrate 300 mg/L, 37° C. 18 h in air
[8] = tested on: Yersinia enterocolitica NCTC 11176; assay: Agar plate multi-point inoculation, colour; format: cell-based; settings: Columbia agar, FAC 500 mg/L, substrate 300 mg/L, 37° C. 18 h in air
[9] = tested on: Burkholderia cepacia NCTC 10931; assay: Agar plate multi-point inoculation, colour; format: cell-based; settings: Columbia agar, FAC 500 mg/L, substrate 300 mg/L, 37° C. 18 h in air
[10] = tested on: Acinetobacter baumannii NCTC 19606; assay: Agar plate multi-point inoculation, colour; format: cell-based; settings: Columbia agar, FAC 500 mg/L, substrate 300 mg/L, 37° C. 18 h in air
[11] = tested on: Steptococcus pyogenes NCTC 8306; assay: Agar plate multi-point inoculation, colour; format: cell-based; settings: Columbia agar, FAC 500 mg/L, substrate 300 mg/L, 37° C. 18 h in air
[12] = tested on: Staphylococcus aureus (MRSA) NCTC 11939; assay: Agar plate multi-point inoculation, colour; format: cell-based; settings: Columbia agar, FAC 500 mg/L, substrate 300 mg/L, 37° C. 18 h in air
[13] = tested on: Staphylococcus aureus NCTC 6571; assay: Agar plate multi-point inoculation, colour; format: cell-based; settings: Columbia agar, FAC 500 mg/L, substrate 300 mg/L, 37° C. 18 h in air
[14] = tested on: Staphylococcus epidermidis NCTC 11047; assay: Agar plate multi-point inoculation, colour; format: cell-based; settings: Columbia agar, FAC 500 mg/L, substrate 300 mg/L, 37° C. 18 h in air
[15] = tested on: Listeria monocytogenes NCTC 11994; assay: Agar plate multi-point inoculation, colour; format: cell-based; settings: Columbia agar, FAC 500 mg/L, substrate 300 mg/L, 37° C. 18 h in air
[16] = tested on: Enterococcus faecium NCTC 7171; assay: Agar plate multi-point inoculation, colour; format: cell-based; settings: Columbia agar, FAC 500 mg/L, substrate 300 mg/L, 37° C. 18 h in air
[17] = tested on: Enterococcus faecalis NCTC 775; assay: Agar plate multi-point inoculation, colour; format: cell-based; settings: Columbia agar, FAC 500 mg/L, substrate 300 mg/L, 37° C. 18 h in air
[18] = tested on: Bacillus subtilis NCTC 9372; assay: Agar plate multi-point inoculation, colour; format: cell-based; settings: Columbia agar, FAC 500 mg/L, substrate 300 mg/L, 37° C. 18 h in air
[19] = tested on: Candida albicans ATCC 90028; format: cell-based; settings: Columbia agar, FAC 500 mg/L, substrate 300 mg/L, 37° C. 18 h in air
[20] = tested on: Candida glabrata NCPF 3943; assay: Agar plate multi-point inoculation, colour; format: cell-based; settings: Columbia agar, FAC 500 mg/L, substrate 300 mg/L, 37° C. 18 h in air
[21] = tested on: Gram-positive or Gram-negative strains; assay: Toxicity / growth of microorganisms on substrate agar plates; format: cell-based; settings: substrate 300 mg/L
Method: This compound was tested on agar plates by multi-point inoculation. The plates were made from Columbia agar (Oxoid, Basingstoke, UK) (100 ml) supplemented with ferric ammonium citrate (FAC) (50 mg). After the agar had been autoclaved (121° C.) and cooled to 50° C., a filter sterilized solution of the substrate (8) (30 mg) dissolved in N-methylpyrrolidone (NMP) (200 μL) was added, thus giving a substrate concentration of 300 mg/L. After pouring, the plates were inoculated with a range of microorganisms and incubated at 37° C. for 18 h in air (Table 1).
In the publication of Zincke and Fries, the authors reported that treatment of 1,4,6,7-tetrabromo-DHN (20) with tin (II) chloride led to the removal of the bromines in the 1 and 4 positions. Their work was repeated and the expected 6,7-dibromo-DHN (21) was obtained smoothly and in good yield (68%). 6,7-Dibromo-DHN (21) is isomeric with the 1,4-dibromo compound which had proven unsuccessful as an aglycone for the detection of microorganisms. Notwithstanding this latter fact, we proceeded to evaluate the properties of 6,7-dibromo-DHN […] as an aglycone for artificial chromogenic enzyme substrates. […]

range of microorganisms = assay: Agar plate evaluation with a range of microorganisms (hue, diffusion, background); format: cell-based

Structure (SMILES): OCC1OC(Oc2cc3ccccc3cc2O)C(O)C(O)C1O [Compound 8, DHN-β-D-galactopyranoside]
- Colour [1]: ++
- Colour [2]: ++
- Colour [3]: −
- Colour [4]: ++
- Colour [5]: +
- Colour [6]: −
- Colour [7]: −
- Colour [8]: −
- Colour [9]: −
- Colour [10]: −
- Colour [11]: −
- Colour [12]: −
- Colour [13]: −
- Colour [14]: −
- Colour [15]: −
- Colour [16]: Tr.
- Colour [17]: −
- Colour [18]: −
- Colour [19]: −
- Colour [20]: −
- toxicity to strains tested [21]: no obvious toxicity
- colour (hue) after hydrolysis (range of microorganisms; agar plates with FAC): strong purple-maroon colour
- formation of coloured chelate (range of microorganisms; plates incubated under anaerobic conditions): still formed
- sensitivity after autoclaving substrate in agar (range of microorganisms; substrate added prior to autoclaving, 121° C. for 20 minutes): no decrease in sensitivity
- melting point: > 230 °C (dec.)
